Results on nine molecules are retold here after patent publication US20210145764A1, “COMPOSITIONS OF CANNABIDIOL (CBD), AND/OR POLYPHENOLS, AND METHODS FOR THE PREVENTION AND/OR TREATMENT OF SKIN, MUSCLE, NERVE AND INFLAMMATORY DISORDERS, AND BIOLOGICAL FACTORS AND FUNCTIONS IN MAMMALS” (BRIGHAM YOUNG UNIVERSITY, priority 2019, published 2021).

In data set [1] the test system is full epidermal/dermal thickness human skin cultures. The data set is described as follows: Histology (hematoxylin/eosin) of human skin cultures. The data set is classed as cell-based. The settings on record: 0.3% CBD; 0.5% equol; combination; 40× magnification. The protocol: FIG. 14 depicts photomicrographs (40× magnification) of full epidermal/dermal thickness human skin cultures. […] Standard bar=50 microns.
In human skin gene expression analysis full epidermal/dermal thickness human skin cultures were used.
The skin cultures were treated with: (a) transcutol vehicle; (b) 0.3% CBD; and (c) 0.5% equol and 0.3% CDB plus 0.5% equol.

For data set [2], the system named is full thickness epidermal/dermal human skin cultures. In words: MTT assay cell viability, full thickness skin cultures. The data set is classed as cell-based. An excerpt:
Testing CBD and equol at various concentration to determine tissue/cell viability as indicated on the y- and x-axis and figure labels for subsequent human skin gene analysis. Triton X-100 treatment (cytotoxic control). Note: The MTT assay is a colorimetric assay, which has been validated for measuring cell metabolic activity. It is based on the ability of nicotinamide adenine dinucleotide phosphate (NADPH)-dependent cellular oxidoreductase enzymes to reduce the tetrazolium dye MTT to its insoluble formazan, which has a purple color. The absorbance of this colored solution can be quantified by measuring at a certain wavelength (usually between 500 and 600 nm) by a spectrophotometer. The MTT method is one of the most widely used methods to analyze cell proliferation and viability in human skin cells (Triglia et al., 1991).
A general note: Tetrazolium dyes change colour on reduction, which living cells bring about.

Data set [3] relates to dermal layer (only) of the human skin cultures. The data set is described as follows: MTT assay viability, dermal layer (only). The format is cell-based. An excerpt: Testing CBD and equol at various concentration to determine tissue/cell viability as indicated on the y- and x-axis and figure labels for subsequent human skin gene analysis. Triton X-100 treatment (cytotoxic control).

In data set [4] the target is T1, Estrogen Related Receptor gamma (γ) (Homo sapiens, UniProt P62508).
T1 sequence (P62508 1-458): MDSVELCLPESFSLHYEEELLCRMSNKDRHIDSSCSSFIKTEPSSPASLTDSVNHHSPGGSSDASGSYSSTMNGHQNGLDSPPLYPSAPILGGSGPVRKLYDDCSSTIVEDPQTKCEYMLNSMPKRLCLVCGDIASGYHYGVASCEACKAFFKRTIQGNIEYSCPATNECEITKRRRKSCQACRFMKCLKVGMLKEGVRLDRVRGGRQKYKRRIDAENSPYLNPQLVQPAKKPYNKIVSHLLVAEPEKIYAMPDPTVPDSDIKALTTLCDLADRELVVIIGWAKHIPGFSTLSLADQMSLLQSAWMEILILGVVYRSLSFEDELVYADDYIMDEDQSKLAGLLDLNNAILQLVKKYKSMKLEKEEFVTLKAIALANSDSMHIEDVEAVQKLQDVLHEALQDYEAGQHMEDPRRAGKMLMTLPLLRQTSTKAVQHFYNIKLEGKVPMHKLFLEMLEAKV
To be noted: cited from earlier work.

The conditions of data set [5]: single topical dose, human skin; cited from earlier work.
The subject of data set [6] is human skin biomarkers. To be noted: cited from earlier work.
For data set [7] the following is noted: cited from earlier work.
The conditions of data set [8]: 12 weeks; Equol alone at 0.3%; cited from earlier work.
The target in data set [9] is T2, 5α-Reductase Enzyme (type 1 in skin) (Homo sapiens, UniProt P18405).
T2 sequence (P18405 1-259): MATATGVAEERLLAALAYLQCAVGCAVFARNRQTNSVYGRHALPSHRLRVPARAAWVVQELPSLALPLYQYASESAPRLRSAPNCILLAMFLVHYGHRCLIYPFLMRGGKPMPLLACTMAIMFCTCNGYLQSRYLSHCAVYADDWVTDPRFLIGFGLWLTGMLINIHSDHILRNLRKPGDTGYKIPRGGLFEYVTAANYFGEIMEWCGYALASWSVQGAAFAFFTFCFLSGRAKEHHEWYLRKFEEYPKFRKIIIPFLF
To be noted: cited from earlier work.

For data set [10], the target named is Estrogen Receptor Beta (β) (Homo sapiens, UniProt Q92731). The settings on record: cited from earlier work; for Ki: read-out: Binds Estrogen Receptor Beta (β), Ki.
Estrogen Receptor Beta (β), sequence (Q92731 whole entry, species assumed): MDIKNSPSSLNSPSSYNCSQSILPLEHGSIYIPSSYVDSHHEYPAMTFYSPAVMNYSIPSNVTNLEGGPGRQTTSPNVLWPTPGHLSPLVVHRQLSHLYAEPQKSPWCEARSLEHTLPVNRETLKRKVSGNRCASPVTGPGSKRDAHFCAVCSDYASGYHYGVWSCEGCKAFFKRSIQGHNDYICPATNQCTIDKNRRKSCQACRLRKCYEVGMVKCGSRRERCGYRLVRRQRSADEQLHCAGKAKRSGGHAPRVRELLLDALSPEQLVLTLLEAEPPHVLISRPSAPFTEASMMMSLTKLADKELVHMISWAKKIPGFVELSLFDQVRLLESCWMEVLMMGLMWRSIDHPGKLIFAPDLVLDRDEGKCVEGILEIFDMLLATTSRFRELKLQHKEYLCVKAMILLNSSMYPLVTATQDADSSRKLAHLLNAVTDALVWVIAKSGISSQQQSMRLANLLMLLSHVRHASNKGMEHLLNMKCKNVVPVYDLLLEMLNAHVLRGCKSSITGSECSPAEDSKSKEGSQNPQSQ
Data set [11] has as its target Estrogen Receptor Alpha (α) (Homo sapiens, UniProt P03372). The settings on record: cited from earlier work; for Ki: read-out: Binds Estrogen Receptor Alpha (α), Ki.
The conditions of data set [12]: cited from earlier work. The source holds these as a separate data set.
The test system of data set [13] is Collagen. To be noted: cited from earlier work.
Data set [14] relates to Elastin. The settings on record: cited from earlier work.
Data set [15] has as its system Elastase. The settings on record: cited from earlier work.
The test system of data set [16] is TIMP1. The settings on record: cited from earlier work.
Data set [17] has as its system MMPs. The settings on record: cited from earlier work.
The subject of data set [18] is Growth Factors. To be noted: cited from earlier work.
Data set [19] concerns the target T3, Nrf2 (Homo sapiens, UniProt Q16236).
T3 sequence (Q16236 1-605): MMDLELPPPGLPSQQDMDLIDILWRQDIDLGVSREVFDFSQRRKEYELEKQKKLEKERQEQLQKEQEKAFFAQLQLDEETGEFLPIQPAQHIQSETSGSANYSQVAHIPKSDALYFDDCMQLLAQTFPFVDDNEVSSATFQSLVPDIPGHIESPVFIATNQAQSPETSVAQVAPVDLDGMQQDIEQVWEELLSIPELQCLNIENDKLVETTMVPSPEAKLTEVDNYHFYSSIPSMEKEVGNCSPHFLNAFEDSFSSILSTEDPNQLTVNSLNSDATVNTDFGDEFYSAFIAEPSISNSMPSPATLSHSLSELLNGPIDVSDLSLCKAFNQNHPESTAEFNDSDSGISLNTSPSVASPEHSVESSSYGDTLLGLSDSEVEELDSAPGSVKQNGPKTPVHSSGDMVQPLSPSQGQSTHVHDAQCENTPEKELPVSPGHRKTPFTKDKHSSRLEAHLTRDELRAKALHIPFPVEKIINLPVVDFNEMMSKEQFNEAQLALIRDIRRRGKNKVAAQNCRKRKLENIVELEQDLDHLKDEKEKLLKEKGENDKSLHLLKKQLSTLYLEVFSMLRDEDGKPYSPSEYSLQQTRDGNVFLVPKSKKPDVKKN
To be noted: cited from earlier work.

For data set [20], the system named is NFkappB. The settings on record: cited from earlier work.
Data set [21] concerns Inflammatory Molecules. The settings on record: cited from earlier work.
For data set [22], the system named is AP-1. The settings on record: same concentrations; cited from earlier work.
For data set [23] the following is noted: drug delivery studies; cited from earlier work.
The conditions of data set [24]: cited from earlier work. This is another data set of the same source.
For data set [25] the following is noted: in vivo; cited from earlier work.

Estrogen Receptor Alpha (α), sequence (P03372 whole entry): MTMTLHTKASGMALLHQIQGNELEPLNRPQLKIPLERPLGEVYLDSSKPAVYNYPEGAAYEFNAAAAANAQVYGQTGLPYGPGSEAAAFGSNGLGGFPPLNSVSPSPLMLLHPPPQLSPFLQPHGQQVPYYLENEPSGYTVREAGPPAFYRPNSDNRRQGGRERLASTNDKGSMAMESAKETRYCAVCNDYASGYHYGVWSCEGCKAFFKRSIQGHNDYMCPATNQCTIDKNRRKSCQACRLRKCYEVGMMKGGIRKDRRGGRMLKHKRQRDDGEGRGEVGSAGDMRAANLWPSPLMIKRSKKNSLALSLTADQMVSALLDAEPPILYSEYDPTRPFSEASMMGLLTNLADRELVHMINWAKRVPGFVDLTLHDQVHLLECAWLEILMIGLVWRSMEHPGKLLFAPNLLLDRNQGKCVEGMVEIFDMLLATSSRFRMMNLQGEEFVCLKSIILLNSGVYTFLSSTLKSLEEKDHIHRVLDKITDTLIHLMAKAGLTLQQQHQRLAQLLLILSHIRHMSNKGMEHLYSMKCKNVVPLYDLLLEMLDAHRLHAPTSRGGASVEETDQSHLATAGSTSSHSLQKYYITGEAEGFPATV

Turning to `Oc1ccc([C@H]2COc3cc(O)ccc3C2)cc1` (racemic) [Equol, equol], the “epidermal and dermal components and epidermal/dermal borders (histology)” value in data set [1] is “intact and healthy”. Also, in data set [2] (human), the “relative percent cell viability, full thickness cultures (MTT)” value is reported as “around 100%”. Also, the “relative percent cell viability, dermal layer only (MTT)” value in [3] (human) was “around 100%”. Also, the “transcriptional activity of ERR γ” value in data set [4] was “enhanced”. In [5], the “skin penetration profile, peak time” value was “around 8 hours” and the “sustained release after the initial application” value is “up to 28 hours”. In data set [6], the “number of human skin biomarkers/genes significantly altered” value is reported as 39. Besides, the “circulates in the free or unbound form in plasma” value in data set [7] is “approximately 50%”. In [8], the “Even Skin Tone, Self-Assessment Questionnaire efficacy” value is 70%; the “Frown Lines/Wrinkles, Self-Assessment Questionnaire efficacy” value is 72%; the “Hydration, Self-Assessment Questionnaire efficacy” value is 71%; the “Pore Size, Self-Assessment Questionnaire efficacy” value is given as 51%. Moreover, in data set [8], the “Radiance/Brightness, Self-Assessment Questionnaire efficacy” value was 73%; the “Skin Firmness, Self-Assessment Questionnaire efficacy” value was 77%; the “Smoothness, Self-Assessment Questionnaire efficacy” value is reported as 62%; the “Spots/Discoloration, Self-Assessment Questionnaire efficacy” value is 55%.

As to `Oc1ccc(C2COc3cc(O)ccc3C2)cc1` (racemic) [Racemic Equol, equol], in data set [9], the “Inhibits 5α-Reductase Enzyme (type 1 in skin)” value (shortened to “Inhibits 5α-Reductase Enzyme”) was “Yes”. In addition, the 50% inhibitory concentration (IC50) – broadly, the concentration that gives 50% inhibition – was 200 nM in data set [10] (read-out: Binds Estrogen Receptor Beta (β), IC50) and 1500 nM in [11] (read-out: Binds Estrogen Receptor Alpha (α), IC50). Besides, the “Binds/Activates Estrogen Related Receptor gamma (γ)” value in data set [4] was “Yes”. Besides, in data set [12], the “Oral Metabolism in Humans (pharmacokinetics compared to each other)” value is “Similar”. Further, the “Stimulates Collagen” value in data set [13] is recorded as “Yes”. Moreover, the “Stimulates Elastin” value in [14] is “Yes”. The “Inhibits Elastase” value in data set [15] is recorded as “Yes”. The “Stimulates TIMPI” value in [16] is given as “Yes”. In data set [17], the “Inhibits MMPs” value is “Yes, to moderate”. In [18], the “Stimulates Growth Factors” value is recorded as “Yes, to moderate”. In addition, in data set [19], the “Binds Nrf2/activates other antioxidants” value is on record as “Yes”. For the same molecule, in [20], the “Inhibits NFkappB” value is reported as “Yes, high inhibition”. Besides, in data set [21], the “Inhibits Inflammatory Molecules” value is given as “Yes, high inhibition”. In addition, the “TPA-induced activation of AP-1” value in data set [22] is “dose-dependently attenuated”.

As to `C=C(C)[C@@H]1CCC(C)=C[C@H]1c1c(O)cc(CCCCC)cc1O` [CBD, cannabidiol], in data set [1], the “epidermal and dermal components and epidermal/dermal borders (histology)” value is “intact and healthy”. For the same molecule, in [2] (FIG. 15), the “relative percent cell viability, full thickness cultures (MTT)” value is “around 100%”. Besides, the “relative percent cell viability, dermal layer only (MTT)” value in [3] (FIG. 16) is given as “around 100%”.

In the case of `Oc1ccc([C@@H]2COc3cc(O)ccc3C2)cc1` [R-Equol, R-equol], the “Inhibits 5α-Reductase Enzyme” value in data set [9] is “Yes”. Further, in data set [10], the “affinity for ERβ” value is on record as “weak affinity” and the Ki – broadly, a measure of affinity in units of concentration, obtained from inhibition or displacement – is 15.4 nM. Further, in [11], the “affinity for ER alpha” value is reported as “weak affinity” and the inhibition constant Ki is 27.4 nM. Further, the “Oral Metabolism in Humans (pharmacokinetics compared to each other)” value in data set [12] was “Similar”. The “Stimulates Collagen” value in data set [13] is on record as “Yes”. Also, the “Stimulates Elastin” value in data set [14] is given as “Yes”. The “Stimulates TIMPI” value in data set [16] is reported as “No, or at very low”. In addition, the “Stimulates Growth Factors” value in data set [18] is “Yes, to high levels”. Besides, the “Inhibits Inflammatory Molecules” value in data set [21] is given as “Yes, high inhibition”. Further, the “more stable isomer, R-equol vs. S-equol” value in data set [23] was “more stable isomer”.

In the case of `Oc1ccc([C@H]2COc3cc(O)ccc3C2)cc1` [S-Equol, S-equol], the “Inhibits 5α-Reductase Enzyme” value in [9] is given as “No”. The “binding to estrogen receptor beta relative to 17β-estradiol” value in data set [10] (as well as 17β-estradiol) was “approximately ⅕”. The Ki in [10] was 6.4 nM; in [11], 15.4 nM. Also, in [11], the “affinity for ER alpha” value is on record as “low affinity”. The “Oral Metabolism in Humans (pharmacokinetics compared to each other)” value in data set [12] is given as “Similar”. In addition, the “Stimulates Collagen” value in [13] is listed as “Yes”. In addition, the “Stimulates Elastin” value in data set [14] was “No”. The “Stimulates TIMPI” value in [16] is reported as “Yes”. In [17], the “Inhibits MMPs” value is “Yes, to low levels of”. The “Stimulates Growth Factors” value in [18] was “Yes, to low levels”. Also, the “Inhibits Inflammatory Molecules” value in data set [21] is “Yes, low inhibition”.

Take `CCCCCc1cc(O)c2c(c1)OC(C)(C)[C@@H]1CCC(C)=C[C@@H]21` [THC, tetrahydrocannabinol]: in [24] (organic solvents, particularly lipids and alcohols), the “solubility in most organic solvents” value was “good solubility”. Further, the solubility in water result in [24] (water) is reported as “low solubility”.

For the molecule `CC1=C(/C=C/C(C)=C/C=C/C(C)=C/C=C/C=C(C)/C=C/C=C(C)/C=C/C2=C(C)C(=O)[C@@H](O)CC2(C)C)C(C)(C)C[C@H](O)C1=O` [astaxanthin, reference compound], the “number of human skin biomarkers/genes significantly altered” value in data set [6] is given as 6.

Turning to `O=c1c(-c2ccc(O)cc2)coc2cc(O)ccc12` [daidzein, reference compound], the “transcriptional activity of ERR γ” value in [4] is recorded as “did not have this effect”. In addition, in data set [22], the “TPA-induced activation of AP-1” value is listed as “did not exert any effect”. Besides, the intestinal absorption levels in data set [25] is recorded as 30-40%.

For `O=c1c(-c2ccc(O)cc2)coc2cc(O)cc(O)c12` [genistein], the intestinal absorption levels in [25] is on record as 15-20%.
